Experimental data reported in US4798843A, “2-mercaproimidazole dopamine-β-hydroxylase inhibitors” (SmithKline Beckman Corporation, priority 1987, dated 1989).

Columns and labels:
DBH [1] = biological target: T1, DBH (Homo sapiens, UniProt P09172); conditions: cited from earlier work
T1 sequence (P09172 1-617): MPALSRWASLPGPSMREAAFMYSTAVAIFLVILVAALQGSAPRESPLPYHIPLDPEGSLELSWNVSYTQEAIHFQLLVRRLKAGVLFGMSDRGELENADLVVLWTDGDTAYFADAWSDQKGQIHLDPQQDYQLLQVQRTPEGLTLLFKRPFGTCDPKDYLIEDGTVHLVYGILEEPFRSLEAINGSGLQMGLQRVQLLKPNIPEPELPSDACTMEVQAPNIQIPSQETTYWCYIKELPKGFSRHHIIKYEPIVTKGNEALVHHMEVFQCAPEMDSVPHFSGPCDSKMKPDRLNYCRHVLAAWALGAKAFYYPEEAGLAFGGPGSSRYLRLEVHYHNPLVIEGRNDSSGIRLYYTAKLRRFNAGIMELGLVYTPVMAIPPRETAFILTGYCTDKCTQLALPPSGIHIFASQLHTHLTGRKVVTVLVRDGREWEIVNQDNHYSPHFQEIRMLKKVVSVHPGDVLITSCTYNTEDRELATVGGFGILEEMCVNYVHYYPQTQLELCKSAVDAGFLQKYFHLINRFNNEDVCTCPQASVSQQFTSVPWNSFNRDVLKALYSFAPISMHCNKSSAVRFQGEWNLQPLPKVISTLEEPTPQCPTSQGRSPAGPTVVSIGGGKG

DBH [2] = biological target: T2, DBH (Bos taurus, UniProt P15101); assay: in vitro DBH inhibition, conversion of tyramine to octopamine in the presence of DBH (spectrophotometric at 330 nm); assay type: biochemical; conditions: for IC50: molar concentration of compound at which DBH activity was halved; for DBH inhibition: @ 10^-4 (molar concentration)
T2 sequence (P15101 1-610): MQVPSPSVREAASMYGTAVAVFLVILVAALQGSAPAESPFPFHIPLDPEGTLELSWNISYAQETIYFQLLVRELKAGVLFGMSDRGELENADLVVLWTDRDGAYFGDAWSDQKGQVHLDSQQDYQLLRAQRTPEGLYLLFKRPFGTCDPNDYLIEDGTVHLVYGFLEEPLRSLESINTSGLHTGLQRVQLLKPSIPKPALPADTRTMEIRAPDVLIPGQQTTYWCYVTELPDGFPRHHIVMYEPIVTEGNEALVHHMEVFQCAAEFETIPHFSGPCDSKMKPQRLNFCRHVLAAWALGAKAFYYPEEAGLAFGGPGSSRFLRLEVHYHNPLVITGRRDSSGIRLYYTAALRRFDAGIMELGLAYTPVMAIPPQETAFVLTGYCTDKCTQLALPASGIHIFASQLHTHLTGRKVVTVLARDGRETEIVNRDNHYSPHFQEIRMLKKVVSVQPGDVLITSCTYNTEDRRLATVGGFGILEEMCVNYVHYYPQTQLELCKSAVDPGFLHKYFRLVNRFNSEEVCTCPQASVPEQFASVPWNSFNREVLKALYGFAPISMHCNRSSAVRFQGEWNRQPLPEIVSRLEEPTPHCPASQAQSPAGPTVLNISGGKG
Experimental: Listed in Table I are Formula II compounds that were tested for in vitro DBH inhibition by a standard procedure for assaying conversion of tyramine to octopamine in the presence of DBH. J. J. Pisano, et al., Biochim. Biophys. Acta, 43, 566-568 (1960). Octopamine was assayed following sodium periodate oxidation to p-hydroxybenzaldehyde by measuring spectrophotometric absorbance at 330 nm. In Table I, inhibition is given in molar concentration of compound at which DBH activity was halved (IC50). Fusaric acid, by this test has an IC50 of 8×10^-7 M.

[3] = mean arterial blood pressure in spontaneously hypertensive rats; assay type: in vivo; conditions: 50 mg/kg intraperitoneally
Experimental: Further, spontaneously hypertensive rats were treated with 5-benzyl-2-mercaptoimidazole at a dose of 50 mg/kg intraperitoneally, and mean arterial blood pressure was monitored for 260 minutes using indwelling cannulae in the tail arteries. […] The maximal blood pressure reduction was approximately 25 mmHg.

[4] = Teresawa et al.; cited from earlier work
[5] = Ehrreich et al.; cited from earlier work

For `O=C(O)c1ccc(CCCCCl)cn1` [5 (4 chlorobutyl) picolinic acid], the “DBH inhibition (in words)” value (DBH [1]) is listed as “inhibit DBH”.
Work on `Sc1nc(-c2ccccc2)c[nH]1` [5-Phenyl-2-mercaptoimidazole] yielded an IC50 (DBH [2]) of 5500 µM.
Compound `Oc1ccc(CCc2cnc(S)[nH]2)cc1` [5-(2-(4-Hydroxyphenyl)ethyl)-2-mercaptoimidazole] has an IC50 (DBH [2]) of 400 µM.
`Sc1ncc(CCc2ccccc2)[nH]1` [5-(2-Phenylethyl)-2-mercaptoimidazole] showed an IC50 (DBH [2]) of 17 µM.
Work on `Oc1ccc(CCCc2cnc(S)[nH]2)cc1` [5-(3-(4-Hydroxyphenyl)propyl)-2-mercaptoimidazole] yielded a DBH inhibition (DBH [2]) of 29%.
For `Sc1ncc(Cc2ccccc2)[nH]1` [5-benzyl-2-mercaptoimidazole], the “time to significant blood pressure reductions vs vehicle-treated controls” value ([3]; indwelling cannulae in tail arteries) was no more than 30 min, the “maximal blood pressure reduction” value ([3]; monitored for 260 minutes) was “approximately 25 mmHg” and the “time of lowest blood pressure” value ([3]; monitored for 260 minutes) was “exhibited their lowest blood pressures when monitoring was discontinued”.
In the case of `NOCc1ccccc1` [Benzyloxyamine], the “DBH inhibition (in words)” value (DBH [1]) is listed as “apparently act as competitive inhibitors”.
In the case of `CCCCc1ccc(C(=O)O)nc1` [Fusaric acid], the hepatotoxicity [4] is given as “hepatotoxic”.
In the case of `Sc1ncc(CCCCc2ccccc2)[nH]1` [5-(4-Phenylbutyl)-2-mercaptoimidazole], the IC50 (DBH [2]) is reported as 100 µM.
Compound `COc1ccc(CCCCc2cnc(S)[nH]2)cc1` [5-(4-(4-Methoxyphenyl)butyl)-2-mercaptoimidazole] has an IC50 (DBH [2]) of 100 µM.
For `Sc1ncc(-c2ccc(Cl)cc2)[nH]1` [5-(4-Chlorophenyl)-2-mercaptoimidazole], the IC50 (DBH [2]) was 100 µM.
`Oc1ccc(CCCCc2cnc(S)[nH]2)cc1` [5-(4-(4-Hydroxyphenyl)butyl)-2-mercaptoimidazole] showed a DBH inhibition (DBH [2]) of 24%.
For `CN(C)C(=S)SCc1ccc(C(=O)O)nc1` [5-(dimethyldithiocarbamoylmethyl)picolinic acid], the “DBH inhibition (in words)” value (DBH [1]) is listed as “DBH inhibitors”.
For `NCCc1ccc(O)c(O)c1` [DA, dopamine], the “antihypertensive or vasodilator activity” value [5] is listed as “selective vasodilator activity at certain concentrations”.
With `COc1ccc(CCCc2cnc(S)[nH]2)cc1` [5-(3-(4-Methoxyphenyl)propyl)-2-mercaptoimidazole] the DBH inhibition (DBH [2]) was 39%.
Work on `Sc1ncc(CCCc2ccccc2)[nH]1` [5-(3-Phenylpropyl)-2-mercaptoimidazole] yielded an IC50 (DBH [2]) of 10 µM.
For `NNCc1ccccc1` [benzylhydrazine], the “DBH inhibition (in words)” value (DBH [1]) is listed as “apparently act as competitive inhibitors”.
For `COc1ccc(Cc2cnc(S)[nH]2)cc1` [5-(4-Methoxybenzyl)-2-mercaptoimidazole], the DBH inhibition (DBH [2]) was 36%.
For phenylpicolinic acid, the “DBH inhibitory activity relative to fusaric acid” value (DBH [1]; Runti et al.) is given as “twice the inhibitory activity of fusaric acid”.
Compound `COc1ccc(CCc2cnc(S)[nH]2)cc1` [5-(2-(4-Methoxyphenyl)ethyl)-2-mercaptoimidazole] has a DBH inhibition (DBH [2]) of 8.4%.
In the case of `COc1ccc(-c2cnc(S)[nH]2)cc1` [5-(4-Methoxyphenyl)-2-mercaptoimidazole], the DBH inhibition (DBH [2]) is reported as 38%.
In the case of `CCCCc1ccc(C(N)=O)nc1` [Bupicomide, 5-(n-butyl)picolinamine], the “DBH inhibition (in words)” value (DBH [1]) is given as “DBH inhibitor” and the “antihypertensive or vasodilator activity” value [5] is given as “has antihypertensive activity”.
In the case of `O=C(O)c1ccc(CCC(Br)CBr)cn1` (centres unmarked) [5-(3,4-dibromobutyl)picolinic acid], the “DBH inhibition (in words)” value (DBH [1]) is given as “DBH inhibitors”.
